Assay results published in US20120309750A1, “5-MEMBERED HETEROCYCLE DERIVATIVES AND MANUFACTURING PROCESS THEREOF” (ILDONG PHARM CO., LTD., priority 2010, published 2012).
Values belong to the compound of their own block, whether it stands above or below them.

How the values were obtained:
[1] = biological target: yeast HSP90 (Saccharomyces cerevisiae, UniProt P02829); assay: Hsp90 ATPase assay (malachite green); assay type: biochemical
Protocol: (§1) For present invention, the ATPase activity of yeast HSP90 was measured using malachite green assay. Formula I compounds for primary antitumoral activity were treated in human colorectal cancer cells (HCT116) showing increased expression levels of HSP90 client protein and cotoxicity IC50 values was measured as a result.

[2] = test system: human colorectal cancer cells (HCT116); assay: Growth inhibition assay (cytotoxicity) in HCT116; assay type: cell-based; conditions: HCT-116
Protocol: as §1

Chain of yeast HSP90 (P02829 whole entry): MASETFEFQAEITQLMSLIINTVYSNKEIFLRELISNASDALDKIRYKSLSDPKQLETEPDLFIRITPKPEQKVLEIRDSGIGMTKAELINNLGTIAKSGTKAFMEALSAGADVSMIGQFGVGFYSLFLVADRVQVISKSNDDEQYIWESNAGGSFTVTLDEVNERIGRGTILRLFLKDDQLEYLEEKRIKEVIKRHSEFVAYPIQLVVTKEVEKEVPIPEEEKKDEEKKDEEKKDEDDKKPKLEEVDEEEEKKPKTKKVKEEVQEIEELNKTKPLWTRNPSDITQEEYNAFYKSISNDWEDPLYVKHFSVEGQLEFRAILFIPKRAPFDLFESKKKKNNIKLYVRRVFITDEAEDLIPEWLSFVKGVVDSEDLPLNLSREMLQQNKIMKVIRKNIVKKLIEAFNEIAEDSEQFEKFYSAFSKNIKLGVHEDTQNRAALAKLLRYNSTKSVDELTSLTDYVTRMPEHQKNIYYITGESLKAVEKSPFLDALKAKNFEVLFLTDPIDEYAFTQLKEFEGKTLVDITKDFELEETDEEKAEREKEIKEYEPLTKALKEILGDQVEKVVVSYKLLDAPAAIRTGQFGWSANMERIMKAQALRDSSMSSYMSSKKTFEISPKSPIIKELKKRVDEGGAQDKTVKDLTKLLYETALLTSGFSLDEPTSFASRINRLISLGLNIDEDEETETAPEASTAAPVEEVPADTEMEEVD

IC50 [1]: > 1000 nM
SMILES: CCNC(=O)c1noc(-c2cc(C(C)C)c(O)cc2O)c1-c1noc(O)n1 [Compound I-80, 5-(2,4-Dihydroxy-5-isopropylphenyl)-N-ethyl-4-(5-hydroxy-1,2,4-oxadiazol-3-yl)isoxazole-3-carboxamide]
IC50 [2]: > 1000 nM

IC50 [1]: < 500 nM
SMILES: CCNC(=O)c1noc(-c2cc(C(C)C)c(O)cc2O)c1-c1noc(N(CC)CC)n1 [Compound I-76, 4-(5-(Diethylamino)-1,2,4-oxadiazol-3-yl)-5-(2,4-dihydroxy-5-isopropylphenyl)-N-ethylisoxazole-3-carboxamide]
IC50 [2]: < 500 nM

IC50 [1]: 500 to 1000 nM
SMILES: CCNC(=O)c1noc(-c2cc(C(C)C)c(O)cc2O)c1-c1noc(S)n1 [Compound I-82, 5-(2,4-Dihydroxy-5-isopropylphenyl)-N-ethyl-4-(5-mercapto-1,2,4-oxadiazol-3-yl)isoxazole-3-carboxamide]
IC50 [2]: 500 to 1000 nM

IC50 [1]: < 500 nM
SMILES: CCNC(=O)c1noc(-c2cc(C(C)C)c(O)cc2O)c1-c1noc(N2CCCCC2)n1 [Compound I-71, 5-(2,4-Dihydroxy-5-isopropylphenyl)-N-ethyl-4-(5-(piperidin-1-yl)-1,2,4-oxadiazol-3-yl)isoxazole-3-carboxamide]
IC50 [2]: < 500 nM

Further lines, the compound ahead of its results:

SMILES: CCNC(=O)c1noc(-c2cc(C(C)C)c(O)cc2O)c1-c1cc(CC#N)no1 [Compound I-35, 3′-(Cyanomethyl)-5-(2,4-dihydroxy-5-isopropylphenyl)-N-ethyl-4,5′-biisoxazole-3-carboxamide]
IC50 [1]: < 500 nM
IC50 [2]: < 500 nM

SMILES: CCNC(=O)c1noc(-c2cc(C(C)C)c(O)cc2O)c1-c1cc(CNC(C)C)no1 [Compound I-40, 5-(2,4-Dihydroxy-5-isopropylphenyl)-N-ethyl-3′-((isopropylamino)methyl)-4,5′-biisoxazole-3-carboxamide]
IC50 [1]: 500 to 1000 nM
IC50 [2]: < 500 nM

SMILES: CCNC(=O)c1noc(-c2cc(C(C)C)c(O)cc2O)c1-c1nnnn1CC [Compound I-13, 5-(2,4-Dihydroxy-5-isopropylphenyl)-N-ethyl-4-(1-ethyl-1H-tetrazol-5-yl)isoxazole-3-carboxamide]
IC50 [1]: < 500 nM
IC50 [2]: < 500 nM

SMILES: CCNC(=O)c1noc(-c2cc(C(C)C)c(O)cc2O)c1-c1ccn(C(C)C)n1 [Compound I-100, 5-(2,4-Dihydroxy-5-isopropylphenyl)-N-ethyl-4-(1-isopropyl-1H-pyrazol-3-yl)isoxazole-3-carboxamide]
IC50 [1]: 500 to 1000 nM
IC50 [2]: < 500 nM

SMILES: CCNC(=O)c1noc(-c2cc(C(C)C)c(O)cc2O)c1-c1noc(-c2ccc(OCC)cc2)n1 [Compound I-90, 5-(2,4-Dihydroxy-5-isopropylphenyl)-4-(5-(4-ethoxyphenyl)-1,2,4-oxadiazol-3-yl)-N-ethylisoxazole-3-carboxamide]
IC50 [1]: 500 to 1000 nM
IC50 [2]: > 1000 nM

SMILES: CC(C)c1cc(-c2onc(CO)c2-c2ccsc2)c(O)cc1O [Compound I-3, 4-(3-(Hydroxymethyl)-4-(thiophen-3-yl)isoxazol-5-yl)-6-isopropylbenzene-1,3-diol]
IC50 [1]: > 1000 nM
IC50 [2]: > 1000 nM

SMILES: CCNC(=O)c1noc(-c2cc(C(C)C)c(O)cc2O)c1-c1noc(-c2ccccc2)n1 [Compound I-61, 5-(2,4-Dihydroxy-5-isopropylphenyl)-N-ethyl-4-(5-phenyl-1,2,4-oxadiazol-3-yl) isoxazole-3-carboxamide]
IC50 [1]: < 500 nM
IC50 [2]: < 500 nM

SMILES: CCNC(=O)c1noc(-c2cc(C(C)C)c(O)cc2O)c1-c1cnn(C(C)C)c1 [Compound I-105, 5-(2,4-Dihydroxy-5-isopropylphenyl)-N-ethyl-4-(1-isopropyl-1H-pyrazol-4-yl)isoxazole-3-carboxamide]
IC50 [1]: 500 to 1000 nM
IC50 [2]: < 500 nM

SMILES: CCNC(=O)c1noc(-c2cc(C(C)C)c(O)cc2O)c1-c1cc(C(=O)O)no1 [Compound I-26, 5-(2,4-Dihydroxy-5-isopropylphenyl)-3-(ethylcarbamoyl)-4,5′-biisoxazole-3′-carboxylic acid]
IC50 [1]: > 1000 nM
IC50 [2]: > 1000 nM
